Values of other authors in article PMC11476552, “Synthesis and Preliminary Studies for In Vitro Biological Activity of Two New Water-Soluble Bis(thio)carbohydrazones and Their Copper(II) and Zinc(II) Complexes” (International Journal of Molecular Sciences, 2024).

Parameters: method as in PMID 29334758
Conditions: cited from earlier work

Compound	cytotoxic activity (in words)
S=C(N/N=C1\CCCc2cccnc21)N1CCN(c2ccccn2)CC1 [COTI-2]	nanomolar cytotoxic activity
CN(C(=S)NN=C(c1ccccn1)c1ccccn1)C1CCCCC1 [DpC, di-2-pyridylketone 4-cyclohexyl-4-methyl-3-thiosemicarbazone]	nanomolar cytotoxic activity
